Reference: patent publication US5436269A, “Method for treating hepatitis” (Sagami Chemical Research Center, priority 1991, dated 1995)

Key:
fulminant hepatitis = assay: Survival of model rats with induced fulminant hepatitis (D-galactosamine hydrochloride and lipopolysaccharide); assay type: in vivo, Wister rats
Experimental: Male Wister rats of 200 g weight were processed to be model animals for inducing hepatitis. Namely, 1500 mg/kg-weight of D-galactosamine hydrochloride was intestinally administrated and, at the same time, 10 μg of lipopolysaccharide derived from E. coli 0111:B4 was injected intravenously.

in vivo = assay: in vivo; parameters: species or system ddy-N mice; settings: mouse
Experimental: Acute toxicity of ethyl docosahexaenoate was tested.
Tested animal: ddy-N mice, 5-week age, 5 male and 5 female
All tested mice were anatomically evaluated after the test.

Structure (SMILES)	model rats survived more than 24 hours (fulminant hepatitis; emulsion containing 10% of 99% pure DHA triglyceride, simultaneous with hepatitis inducer) [%]	induction of hepatitis (fulminant hepatitis; model rats, result in words)	rats survived (fulminant hepatitis; emulsion of ethyl ester of 99% pure DHA, same experiment as Example 2, control rats died within 24 hours) [%]	LD50 (in vivo) [mg/kg]
CC/C=C\C/C=C\C/C=C\C/C=C\C/C=C\C/C=C\CCC(=O)OCC(COC(=O)CC/C=C\C/C=C\C/C=C\C/C=C\C/C=C\C/C=C\CC)OC(=O)CC/C=C\C/C=C\C/C=C\C/C=C\C/C=C\C/C=C\CC [DHA triglyceride]	67	inhibits the induction of hepatitis		
CC/C=C\C/C=C\C/C=C\C/C=C\C/C=C\C/C=C\CCC(=O)OCC [ethyl docosahexaenoate]			75	> 2000
